Source: ChEMBL document CHEMBL6115036, “Exploration of membrane-active cephalosporin derivatives as potent antibacterial agents against Staphylococcus aureus biofilms and persisters” (Eur J Med Chem, 2025)
The source made the active and inactive calls. The rule behind the calls is not given here.

Legend:
Enterococcus faecalis = assay: Antimicrobial activity against Enterococcus faecalis incubated for 16 to 18 hrs by broth dilution assay; assay type: functional; details: time 16-18 hrs
Staphylococcus aureus [1] = assay: Antimicrobial activity against Staphylococcus aureus incubated for 16 to 18 hrs by broth dilution assay; assay type: functional; details: time 16-18 hrs
[2] = test system: Stenotrophomonas maltophilia; assay: Antimicrobial activity against Stenotrophomonas maltophilia incubated for 16 to 18 hrs by broth dilution assay; assay type: functional; details: time 16-18 hrs
Escherichia coli = assay: Antimicrobial activity against Escherichia coli incubated for 16 to 18 hrs by broth dilution assay; assay type: functional; details: time 16-18 hrs
[3] = Hemolytic activity in sheep red blood cells incubated for 1 hr; assay type: toxicity, cell-based, Ovis aries, Erythrocyte
Staphylococcus aureus [4] = assay: Induction of resistance development in Staphylococcus aureus assessed as fold increase in MIC at sub-MIC measured after 20 passages relative to control; assay type: functional
Staphylococcus aureus [5] = assay: Induction of resistance development in drug-resistant Staphylococcus aureus assessed as fold increase in MIC of rifampicin at sub-MIC measured after 20 passages relative to control; assay type: functional
Staphylococcus aureus [6] = assay: Induction of resistance development in drug-resistant Staphylococcus aureus assessed as fold increase in MIC of cefuroxime sodium at sub-MIC measured after 20 passages relative to control; assay type: functional
Staphylococcus aureus [7] = assay: Induction of resistance development in drug-resistant Staphylococcus aureus assessed as fold increase in MIC of ampicillin sodium at sub-MIC measured after 20 passages relative to control; assay type: functional
Staphylococcus aureus [8] = assay: Antibacterial activity against Staphylococcus aureus infected in Kunming mouse model of subcutaneous abscess assessed as surviving bacteria in skin tissue at 10 mg/kg, sc measured after 48 hrs relative to control; assay type: functional
Staphylococcus aureus [9] = assay: Antibacterial activity against Staphylococcus aureus infected in Kunming mouse model of subcutaneous abscess assessed as reduction in bacterial load in skin tissue at 10 mg/kg, sc measured after 48 hrs relative to control; assay type: functional; set-up: scale not given: the % may be the effect or the level left
Staphylococcus aureus [10] = assay: Antibacterial activity against Staphylococcus aureus infected in Kunming mouse model of subcutaneous abscess assessed as reduction in number of bacteria in skin tissue at 5 to 10 mg/kg, sc measured after 48 hrs; assay type: functional, organism-based; details: dose 5-10 mg/kg
Staphylococcus aureus [11] = assay: Inhibition of biofilm formation in Staphylococcus aureus assessed as reduction in number of live bacterial count at 16 times MIC incubated for 24 hrs; assay type: functional
Staphylococcus aureus [12] = assay: Disruption of cell membrane in Staphylococcus aureus assessed as nucleic acid leakage at 32 ug/ml measured after 2 hrs by fluorescence based analysis; assay type: functional, organism-based; details: dose 32.0 µg/ml
Staphylococcus aureus [13] = assay: Disruption of cell membrane in Staphylococcus aureus assessed as protein leakage at 32 ug/ml measured after 2 hrs by fluorescence based analysis; assay type: functional, organism-based; details: dose 32.0 µg/ml
Staphylococcus aureus [14] = assay: Bactericidal activity against Staphylococcus aureus assessed as reduction in bacterial colony count at 4 to 8 times MIC incubated for 8 hrs by time kill assay; assay type: functional, organism-based
Staphylococcus aureus [15] = assay: Antibacterial activity against Staphylococcus aureus in presence of 50% sheep plasma; assay type: functional, organism-based
Staphylococcus aureus [16] = assay: Antibacterial activity against Staphylococcus aureus in presence of 50% FBS; assay type: functional, organism-based
Staphylococcus aureus [17] = assay: Bactericidal activity against Staphylococcus aureus measured for 3 to 6 hrs in presence of 50% sheep plasma; assay type: functional, organism-based; details: time 3-6 hrs
Staphylococcus aureus [18] = assay: Induction of resistance development in Staphylococcus aureus at sub-MIC measured after 20 passages; assay type: functional, organism-based
Staphylococcus aureus [19] = assay: Induction of resistance development in drug-resistant Staphylococcus aureus assessed as fold increase in MIC of levofloxacin at sub-MIC measured after 20 passages relative to control; assay type: functional
Staphylococcus aureus [20] = assay: Induction of resistance development in drug-resistant Staphylococcus aureus at sub-MIC measured after 20 passages in presence of norfloxacin; assay type: functional, organism-based
Staphylococcus aureus [21] = assay: Induction of resistance development in drug-resistant Staphylococcus aureus at sub-MIC measured after 20 passages in presence of ciprofloxacin; assay type: functional, organism-based
Staphylococcus aureus [22] = assay: Induction of resistance development in drug-resistant Staphylococcus aureus at sub-MIC measured after 20 passages in presence of levofloxacin; assay type: functional, organism-based
Staphylococcus aureus [23] = assay: Induction of resistance development in drug-resistant Staphylococcus aureus at sub-MIC measured after 20 passages in presence of linezolid; assay type: functional, organism-based
Staphylococcus aureus [24] = assay: Induction of resistance development in drug-resistant Staphylococcus aureus at sub-MIC measured after 20 passages in presence of rifampicin; assay type: functional, organism-based
Staphylococcus aureus [25] = assay: Induction of resistance development in drug-resistant Staphylococcus aureus at sub-MIC measured after 20 passages in presence of vancomycin; assay type: functional, organism-based
Staphylococcus aureus [26] = assay: Induction of resistance development in drug-resistant Staphylococcus aureus at sub-MIC measured after 20 passages in presence of cefuroxime sodium; assay type: functional, organism-based
Staphylococcus aureus [27] = assay: Induction of resistance development in drug-resistant Staphylococcus aureus at sub-MIC measured after 20 passages in presence of ampicillin sodium; assay type: functional, organism-based
Staphylococcus aureus [28] = assay: Inhibition of metabolic activity in Staphylococcus aureus incubated for 6 hrs by Alamar blue assay; assay type: functional, organism-based
Staphylococcus aureus [29] = assay: Induction of intracellular ROS accumulation in Staphylococcus aureus at 1 to 4 times MIC incubated overnight by DCFH-DA dye based analysis; assay type: functional, organism-based
Staphylococcus aureus [30] = assay: Antibacterial activity against Staphylococcus aureus assessed as effect on quiescent cells at 100 to 200 times MIC incubated for 24 hrs; assay type: functional, organism-based
Staphylococcus aureus [31] = assay: Antibacterial activity against rifampicin-induced persistant Staphylococcus aureus assessed as decrease in CFU at 200 times MIC measured for 10 hrs; assay type: functional, organism-based
Staphylococcus aureus [32] = assay: Inhibition of biofilm formation in Staphylococcus aureus assessed as decrease in bacterial count at 32 times MIC incubated for 24 hrs by CLSM analysis; assay type: functional, organism-based
[33] = Cytotoxicity against human HeLa cells incubated for 24 hrs by CCK8 assay; assay type: toxicity, cell-based
[34] = Cytotoxicity against HUVEC cells incubated for 24 hrs by CCK8 assay; assay type: toxicity, cell-based; details: human
Staphylococcus aureus [35] = assay: Antibacterial activity against Staphylococcus aureus infected in Kunming mouse model of subcutaneous abscess assessed as decrease in neutrophil level in skin tissue at 5 mg/kg, sc measured after 48 hrs by H and E staining based analysis; assay type: functional, organism-based
Staphylococcus aureus [36] = assay: Antibacterial activity against Staphylococcus aureus infected in Kunming mouse model of subcutaneous abscess assessed as decrease in inflammation in skin tissue at 5 mg/kg, sc measured after 48 hrs by H and E staining based analysis; assay type: functional, organism-based
Staphylococcus aureus [37] = assay: Antibacterial activity against Staphylococcus aureus infected in Kunming mouse model of subcutaneous abscess assessed as decrease in inflammatory cell infiltration in skin tissue at 10 mg/kg, sc measured after 48 hrs by H and E staining based analysis; assay type: functional, organism-based
[38] = Toxicity in Kunming mouse model of subcutaneous abscess infected with Staphylococcus aureus assessed as damage in heart at 5 to 10 mg/kg, sc measured after 48 hrs by H and E staining based analysis; assay type: organism-based; details: in vivo, dose 5-10 mg/kg
[39] = Toxicity in Kunming mouse model of subcutaneous abscess infected with Staphylococcus aureus assessed as damage in liver at 5 to 10 mg/kg, sc measured after 48 hrs by H and E staining based analysis; assay type: organism-based; details: in vivo, dose 5-10 mg/kg
[40] = Toxicity in Kunming mouse model of subcutaneous abscess infected with Staphylococcus aureus assessed as damage in spleen at 5 to 10 mg/kg, sc measured after 48 hrs by H and E staining based analysis; assay type: organism-based; details: in vivo, dose 5-10 mg/kg
[41] = Toxicity in Kunming mouse model of subcutaneous abscess infected with Staphylococcus aureus assessed as damage in lung at 5 to 10 mg/kg, sc measured after 48 hrs by H and E staining based analysis; assay type: organism-based; details: in vivo, dose 5-10 mg/kg
[42] = Toxicity in Kunming mouse model of subcutaneous abscess infected with Staphylococcus aureus assessed as damage in kidney at 5 to 10 mg/kg, sc measured after 48 hrs by H and E staining based analysis; assay type: organism-based; details: in vivo, dose 5-10 mg/kg
[43] = Toxicity in Kunming mouse model of subcutaneous abscess infected with Staphylococcus aureus assessed as histopathological abnormalities in heart at 5 to 10 mg/kg, sc measured after 48 hrs by H and E staining based analysis; assay type: organism-based; details: in vivo, dose 5-10 mg/kg
[44] = Toxicity in Kunming mouse model of subcutaneous abscess infected with Staphylococcus aureus assessed as histopathological abnormalities in liver at 5 to 10 mg/kg, sc measured after 48 hrs by H and E staining based analysis; assay type: organism-based; details: in vivo, dose 5-10 mg/kg
[45] = Toxicity in Kunming mouse model of subcutaneous abscess infected with Staphylococcus aureus assessed as histopathological abnormalities in spleen at 5 to 10 mg/kg, sc measured after 48 hrs by H and E staining based analysis; assay type: organism-based; details: in vivo, dose 5-10 mg/kg
[46] = Toxicity in Kunming mouse model of subcutaneous abscess infected with Staphylococcus aureus assessed as histopathological abnormalities in lung at 5 to 10 mg/kg, sc measured after 48 hrs by H and E staining based analysis; assay type: organism-based; details: in vivo, dose 5-10 mg/kg
[47] = Toxicity in Kunming mouse model of subcutaneous abscess infected with Staphylococcus aureus assessed as histopathological abnormalities in kidney at 5 to 10 mg/kg, sc measured after 48 hrs by H and E staining based analysis; assay type: organism-based; details: in vivo, dose 5-10 mg/kg

Work on `O=C(Cc1ccccc1)N[C@@H]1C(=O)N2C(C(=O)O)=C(C[n+]3ccccc3)CS[C@H]12.[I-]` yielded an MIC (Enterococcus faecalis) of 16 µg/mL, an MIC (Staphylococcus aureus [1]) of 0.063 µg/mL and an MIC [2] of 64 µg/mL. The MIC (Escherichia coli) was 32 µg/mL, the HC50 at 1 h [3] was greater than 1280 µg/mL and the “fold change (FC)” value (Staphylococcus aureus [4]) was 64. For the same molecule, the “fold change (FC)” value (Staphylococcus aureus [5]) was 8, the “fold change (FC)” value (Staphylococcus aureus [6]) was greater than 128 and the “fold change (FC)” value (Staphylococcus aureus [7]) was 64.

With `CCCCCCCCCC[n+]1ccc(-c2cc[n+](CC3=C(C(=O)[O-])N4C(=O)[C@@H](NC(=O)Cc5ccccc5)[C@H]4SC3)cc2)cc1.O=C([O-])C(F)(F)F` the Activity (Staphylococcus aureus [8]) was 0.02%, the Activity (Staphylococcus aureus [9]) was 99.98% and the Activity (Staphylococcus aureus [10]) was “Active”. For the same molecule, the Activity (Staphylococcus aureus [11]) was ~1 10^3CFU/ml, the MIC (Enterococcus faecalis) was 4 µg/mL and the MIC (Staphylococcus aureus [1]) was 0.063 µg/mL. For the same molecule, the MIC [2] was 128 µg/mL, the MIC (Escherichia coli) was 128 µg/mL and the HC50 at 1 h [3] was greater than 1280 µg/mL. The Activity (Staphylococcus aureus [12]) was “inactive”, the Activity (Staphylococcus aureus [13]) was “inactive” and the Activity (Staphylococcus aureus [14]) was “Active”. The Activity (Staphylococcus aureus [15]) was “Active; Mic Value Of Compound In Plasma Was Equal To Mic In Mhb Medium”, the Activity (Staphylococcus aureus [16]) was “Active; Mic Value Of Compound In Serum Was Equal To Mic In Mhb Medium” and the Activity (Staphylococcus aureus [17]) was “Active”. The Activity (Staphylococcus aureus [18]) was “inactive”, the “fold change (FC)” value (Staphylococcus aureus [19]) was 8 and the Activity (Staphylococcus aureus [20]) was “inactive”. For the same molecule, the Activity (Staphylococcus aureus [21]) was “inactive”, the Activity (Staphylococcus aureus [22]) was “inactive” and the Activity (Staphylococcus aureus [23]) was “inactive”. For the same molecule, the Activity (Staphylococcus aureus [24]) was “inactive”, the Activity (Staphylococcus aureus [25]) was “inactive” and the Activity (Staphylococcus aureus [26]) was “inactive”. For the same molecule, the Activity (Staphylococcus aureus [27]) was “inactive”, the inhibition (Staphylococcus aureus [28]) was “Dose-dependent-effect” and the Activity (Staphylococcus aureus [29]) was “inactive”. For the same molecule, the Activity (Staphylococcus aureus [30]) was “inactive”, the Activity (Staphylococcus aureus [31]) was “inactive” and the inhibition (Staphylococcus aureus [32]) was “inactive”. For the same molecule, the CC50 at 24 h [33] was 26.9 µg/mL, the CC50 at 24 h [34] was greater than 64 µg/mL and the Activity (Staphylococcus aureus [35]) was “Active”. For the same molecule, the Activity (Staphylococcus aureus [36]) was “Active”, the Activity (Staphylococcus aureus [37]) was “Active; Compound Activity On Skin Was Similar To Healthy Mouse” and the Activity [38] was “Non-toxic”. For the same molecule, the Activity [39] was “Non-toxic”, the Activity [40] was “Non-toxic” and the Activity [41] was “Non-toxic”. For the same molecule, the Activity [42] was “Non-toxic”, the Activity [43] was “Non-toxic” and the Activity [44] was “Non-toxic”. The Activity [45] was “Non-toxic”, the Activity [46] was “Non-toxic” and the Activity [47] was “Non-toxic”.
